# Measured values as given in US7375085B1, “Melanocyte-stimulating hormone inhibitors” (Ajinomoto Co., Inc., priority 1999, dated 2008).
# pIC50: −log10 of the molar value. Read-outs that look alike come from different tables or passages of the source. Non-standard residues stand in square brackets, D forms with d. Residues, ends and D or L forms follow the SMILES beside them. 1Nal = N[C@@H](Cc1cccc2ccccc12)C(=O)O; d1Nal = N[C@H](Cc1cccc2ccccc12)C(=O)O; d2Nal = N[C@H](Cc1ccc2ccccc2c1)C(=O)O
# Experiments:
# [1] = tested on: B16 melanoma cells; test: Measurement of 50% inhibitory concentration of cAMP production (IC50) with 10 nM melanocyte-stimulating hormone; type: cell-based
# Method: The 50% inhibitory concentration of cAMP production (IC50) according to the present invention regarding the compounds having a melanocyte-stimulating hormone (MSH) inhibitory activity is measured and defined as follows.
# Namely, B16 melanoma cells are inoculated on a 12-well plate in such way that 1×10^4 cells are inoculated into 1 well, and cultured at 37° C. for 48 hours in the presence of 5% CO2. After the culturing, the wells are washed with 1 ml of a serum-free medium (serum-free D-MEM medium) per 1 well. Then, a serum-free medium containing 1 mM 3-isobutyl-1-methylxanthine, 10 nM melanocyte-stimulating hormone and a compound to be tested at a different concentration is added in an amount of 1 ml per 1 well, followed by incubation at 37° C. for 5 minutes. After the incubation, the medium is completely removed from the plate, 1 ml of ice-cooled 2.5% perchloric acid is exactly added thereto, and then the whole is incubated for 30 minutes under ice-cooling to extract cAMP from within the cells. After the incubation, the extract solution is neutralized by adding 4.2M potassium hydroxide solution in an amount of […] per 1 well.
# The neutralized extract solution is centrifuged at 4° C. at 12,000 rpm for 10 minutes, and the amount of cAMP in the supernatant is quantitatively determined using “Biotrak cAMP EIA System” (manufactured by Amersham Pharmacia Biotech), as follows. By the way, all the operations are carried out at 5° C. or lower. First, cAMP authentic samples are prepared so as to be 0 to 3200 fM, and each sample is placed in an amount of 100 μl in a 96-well plate. Then, 200 μl of 0.05M acetate buffer (pH 5.8, containing 0.02% serum and 0.01% antiseptic agent) is placed in an NSB well (Non-specific Binding Well) and 100 μl in a blank well. In a sample well is placed 100 μl of a sample to be evaluated. In each of all the wells except for the blank well and the NSB well is added 100 μl of antiserum. The 96-well plate is capped, slowly shaken, and incubated at 3 to 5° C. for 2 hours. After the incubation, 50 μl of cAMP peroxidase is added to each of all the wells except for the blank well. The plate is capped and incubated at 3 to 5° C. for 1 hour. After the incubation, each of all the wells is washed four times with 400 μl in total of 0.01M phosphate buffer (pH 7.5, containing 0.05% “Tween 20”). The liquid remaining in the wells is removed by placing the plate in such manner that the opening parts of the wells face downward, and patting the plate on a paper.
# To each of all the wells is added 150 μl of an enzyme substrate, and the plate is shaken at 15 to 30° C. for 1 hour. After the shaking, 100 μl of 1 M sulfuric acid is added to each well, and absorbance at 450 nm is measured. A calibration curve is prepared from the absorbance of the cAMP authentic samples and the amount of cAMP of each sample is determined.
# The 50% inhibitory concentration of cAMP production (IC50) is defined by the value in terms of nM unit, of a 50% inhibitory concentration obtained by the above procedures, of a test compound against cAMP production with 10 nM melanocyte-stimulating hormone.
# According to the method of measuring the 50% inhibitory concentration of cAMP production (IC50) explained in the above, IC50 was measured on the agents listed in following Table 2, i.e., D-1-Nal-Arg-LeuNH2, D-2-Nal-Arg-LeuNH2, L-1-Nal-Arg-LeuNH2 and D-Trp-Arg-LeuNH2.
# [2] = tested on: Human melanocytes; test: Test on suppression of the melanin formation caused by human melanocytes (MSH added); type: cell-based; details: for Melanin formation suppressing activity (evaluation class): class of minimum concentration showing melanin formation suppressing activity; for Suppression rate of the melanin formation: human melanocytes + MSH, 6th day
# Method: Human melanocytes in logarithmic growth phase were treated with trypsin and inoculated to a 6-well plate with “Medium 154s” (manufactured by Kurabo Industries Ltd., containing a growth factor (HMGS)), in an amount of 1.5×10^5 per 1 well in terms of cell number. The cells were cultured at 37° C. in a carbon dioxide incubator, the CO2 concentration being 5%, for 1 day. Thereafter, rinsing was carried out with the use of HBS (Hepes Buffer Saline), followed by medium replacement with “MCDB153” (containing fetal bovine serum, insulin, b-FGF, transferrin, and tocopherol), and followed by culturing for further 2 days. A whitening agent (containing a compound to be tested) was prepared with “MCDB153” (containing fetal bovine serum, insulin, b-FGF, transferrin, and tocopherol)+melanocyte-stimulating hormone in such way that the concentration would be 200 μM, 20 μM, or 2 μM, and was added to the 6-well plate. Also, a further 6-well plate culture was carried out with the use of “MCDB153” (containing fetal bovine serum, insulin, b-FGF, transferrin, and tocopherol)+melanocyte-stimulating hormone without the whitening agent, and still further a 6-well plate culture was carried out with the use of “MCDB153” (containing fetal bovine serum, insulin, b-FGF, transferrin, and tocopherol) alone, at the same time. The medium replacement with the above “MCDB153” (containing fetal bovine serum) containing a whitening agent was carried out twice every 2 days.
# After the first addition of the whitening agent, the effect of suppressing the melanin formation was confirmed on the 6th day. Namely, the medium on each 6-well plate was removed by suction, and the wells were rinsed with HBS. Thereafter, the 6-well plate was air-dried, and ⅕M NaOH (230 μl) was added to the wells to dissolve the melanin out of the melanocytes. The solution (200 μl) was evaluated by Abs (absorbance) on a microplate reader (475 nm). The suppression rate of the melanin formation by each compound tested was calculated according to the following equation (1). The suppression rate of the melanin formation(%)={1−(A1−A3)/(A2−A3)}×100 (1) • A1: absorbance at 475 nm when both of the compound to be tested and MSH were added. • A2: absorbance at 475 nm when the compound to be tested was not added and MSH was added. • A3: absorbance at 475 nm when both of the compound to be tested and MSH were not added.
# [3] = Test of stability during storage (coloring of aqueous 0.1% solution, APHA method); type: physicochemical; details: for Degree of coloring (APHA Standard color): aqueous 0.1% solution stored at 4° C. for 6 months; for Stability during storage (evaluation class): class of degree of coloring, APHA standard colors
# Method: An aqueous 0.1% solution of D-2-Nal-Arg-LeuNH2 of the present invention, and that of D-Trp-Arg-LeuNH2 which is a known melanocyte-stimulating hormone inhibitor were prepared and stored at 4° C. for 6 months, respectively. The stability during storage was evaluated by comparing the degree of coloring with standard colors of APHA (American Public Healthy Association) method.
# [4] = tested on: Weiser-Maples brown guinea pigs; test: Inhibitory test of melanocyte-stimulating hormone in living body (test of suppressing pigmentation in brown guinea pigs); type: in vivo, guinea pig; set-up: key: ◯: positive pigmentation suppressing effect; X: no pigmentation suppressing effect; —: not tested; details: 50 mM in 50% ethanol-water applied to skin, UVB irradiation, ΔL* vs 50% ethanol
# Method: Inhibitory test of melanocyte-stimulating hormone was carried out by repeating the application of each test compound on a guinea pig and irradiation with ultraviolet rays, followed by measuring the degree of coloring, as follows.
# D-2-Nal-Arg-LeuNH2 (50 mM, dissolved in 50% ethanol-water) and D-Trp-Arg-LeuNH2 (50 mM, dissolved in 50% ethanol-water) were used, and 50% ethanol-water was used as the control.
# Male Weiser-Maples brown guinea pigs (4 weeks old) were purchased from Tokyo Experimental Animal K.K. and used after pre-reared for 7 weeks.
# The brown guinea pigs were individually fixed by means of a fixing instrument and shaved in a square shape of about 3 cm×3 cm on their back with the use of a pair of hair clippers “THRIVE MODEL 6000AD” (manufactured by Natsume Seisakusyo) and “Home Hair Clipper Ceramic ER722” (manufactured by National) and an electric shaver “Dual 1500AC/RC” (manufactured by BRAUN). The skin after shaved was wiped with a water-soaked absorbent cotton, and the moisture was removed with a paper towel “KIMWIPE” (manufactured by CRECIA).
# The skin of the back of the shaven brown guinea pigs was wiped with an ethanol-soaked absorbent cotton, and the horny layer having an area of about 2 cm×2 cm was subjected to tape stripping five times with the use of an adhesive tape “Scotch 313D” (manufactured by 3M). […]
# [5] = B16 melanoma cells, 10 nM melanocyte-stimulating hormone, 5 min incubation, read-out: 50% inhibitory concentration (IC50) of cAMP production
# [6] = class of 50% inhibitory concentration in the test, read-out: MSH inhibitory activity (evaluation class)
"pIC50 [1, 5]","pIC50 [1, 6]",Degree of coloring (APHA Standard color) [3] [APHA],Stability during storage (evaluation class) [3],SMILES,Melanin formation suppressing activity (evaluation class) [2],Suppression rate of the melanin formation ([2]; concentration 20 μM) [%],Suppression rate of the melanin formation ([2]; concentration 200 μM) [%],Brown Guinea pig pigmentation suppressing test (evaluation) [4],Suppression rate of the melanin formation ([2]; concentration 2 μM) [%]
6.33,6.00 to 7.00,,,CC(C)C[C@H](NC(=O)[C@H](CCCNC(=N)N)NC(=O)[C@@H](N)Cc1cccc2ccccc12)C(N)=O [L-1-Nal-Arg-LeuNH2] (H-[1Nal]-Arg-Leu-NH2),B (11 to 100 μM),8,28,,
6.27,6.00 to 7.00,,,CC(C)C[C@H](NC(=O)[C@H](CCCNC(=N)N)NC(=O)[C@H](N)Cc1cccc2ccccc12)C(N)=O [D-1-Nal-Arg-LeuNH2] (H-[d1Nal]-Arg-Leu-NH2),B (11 to 100 μM),43,52,,
6.64,6.00 to 7.00,200,C (101 or more),"CC(C)C[C@H](NC(=O)[C@H](CCCNC(=N)N)NC(=O)[C@H](N)Cc1c[nH]c2ccccc12)C(N)=O [D-Trp-Arg-LeuNH2, reference compound] (H-[dW]-Arg-Leu-NH2)",B (11 to 100 μM),24,57,X,
7.38,≥ 7.00,20,A (20 or less),CC(C)C[C@H](NC(=O)[C@H](CCCNC(=N)N)NC(=O)[C@H](N)Cc1ccc2ccccc2c1)C(N)=O [D-2-Nal-Arg-LeuNH2] (H-[d2Nal]-Arg-Leu-NH2),A (1 to 10 μM),51,70,◯,49
